Like-named read-outs stand apart in the source and are kept apart here.
Tests used:
[1] = test system: EBOV-GFP (recombinant Ebolavirus encoding a GFP reporter gene); experiment: microbe, parasite or virus in culture; type: cell-based
Ebolavirus [2] = details: human, in vivo; cited from earlier work
Ebolavirus [3] = details: cited from earlier work
Huh7 cells = experiment: Cytotoxicity, CellTiter-Glo Luminescent Cell Viability Assay; details: Table 2, 24 h incubation
[4] = as above; details: human, Huh7 cells
[5] = in humans, metabolite formed by CYP2C8; cited from earlier work

SMILES	anti-Ebolavirus activity (previous reports) (Ebolavirus [3])	CC50 (Huh7 cells) [nM]	Selectivity index [1]	IC50 ([1]; Orthoebolavirus, Huh-7) [nM]	IC50 ([1]; Orthoebolavirus, Huh-7, 24 h) [nM]	CC50 at 24 h [4] [nM]	further results
CCN(CC)Cc1cc(Nc2ccnc3cc(Cl)ccc23)ccc1O [Amodiaquine]	potent anti-Ebolavirus activity	79000	–	–	–	–	IC50 ([1]; read-out: IC50): 2130 nM; mortality rate (Ebolavirus [2]): 50%
CCCCN(CCCC)Cc1cc(Nc2ccnc3cc(Cl)ccc23)ccc1O [Compound 28, 4-(7-chloroquinolin-4-ylamino)-2-dibutylaminomethylphenol]	–	> 100000	>139	720	720 ± 80	> 100000	–
CCN(CC)Cc1cc(Nc2ccnc3cc(I)ccc23)ccc1O [Compound 18, 4-(7-iodoquinolin-4-ylamino)-2-diethylaminomethylphenol]	–	> 100000	>156	640	640 ± 50	> 100000	fold potency relative to amodiaquine [1]: 3.3 fold
CCNCc1cc(Nc2ccnc3cc(Cl)ccc23)ccc1O [desethyl-amodiaquine]	potent anti-Ebolavirus activity	–	–	–	–	–	half-life [5]: 220 to 432 h
CCN(CC)CCCC(C)Nc1c2ccc(Cl)cc2nc2ccc(OC)cc12 (stereo not shown) [quinacrine]	anti-Ebolavirus activities	–	–	–	–	–	–
CN(Cc1cc(Nc2ccnc3cc(Cl)ccc23)ccc1O)C(C)(C)C [Compound 15, 4-(7-chloroquinolin-4-ylamino)-2-(tert-butylmethylamino)methylphenol]	–	–	33	1280	1280 ± 70	41800	–
COc1ccc2nc3cc(Cl)ccc3c(Nc3cc(CN4CCCC4)c(O)c(CN4CCCC4)c3)c2n1 [pyronaridine]	anti-Ebolavirus activities	–	–	–	–	–	–
CCCN(CCC)Cc1cc(Nc2ccnc3cc(Cl)ccc23)ccc1O [Compound 26, 4-(7-chloroquinolin-4-ylamino)-2-dipropylaminomethylphenol]	–	–	>106	940	940 ± 80	> 100000	–
CCCN(C)Cc1cc(Nc2ccnc3cc(Cl)ccc23)ccc1O [Compound 14, 4-(7-chloroquinolin-4-ylamino)-2-(methylpropylamino)methylphenol]	–	–	>82	1220	1220 ± 110	> 100000	–

Source: US11571416B2, “Amodiaquine analogs and methods of uses thereof” (priority 2017, dated 2023)
